Data set [1] can be described thus: In vitro liver microsome stability assay. It counts as in vitro ADME. Conditions: liver microsomes, pH 7.4; human, 0.2 mg/mL liver microsomal protein, 1 μM test substance, 37° C.; read-out: Liver microsome stability (species: human): T½. Here is the method: The test substance and the positive control substance verapamil were respectively dissolved with DMSO to 10 mM as a stock solution. The above 10 mM stock solution was diluted with 70% acetonitrile aqueous solution to a concentration of 0.25 mM.
An NADPH regeneration system finally containing concentrations of 6.5 mM NADP, 16.5 mM G-6-P, 3 U/mL G-6-PDH, and 3.3 mM MgCl was prepared.
Stopping solution was an acetonitrile solution containing tolbutamide and propranolol (both internal standards).
Phosphate buffer was a 100 mM K3PO4 (pH=7.4) buffer containing 3.3 mM MgCl2.
Liver microsomal incubation system was a 100 mM phosphate buffer containing 0.2 mg/mL liver microsomal protein and 1 μM test substance/positive control.
80 μL of the mixed solution from the incubation system was taken. 400 μL of the stopping solution was added to precipitate protein. The mixture was vortexed and added with 20 μL of NADPH regeneration system as the sample at 0 min.
130 μL of NADPH regeneration system was added to the remaining 520 μL of protein-drug mixed solution. The mixture was mixed well, and incubated. The final incubation system was 650 μL, containing 0.2 mg/mL liver microsomal protein, 1 μM test substance/positive control, 1.3 mM NADP, 3.3 mM G-6-P, and 0.6 U/mL G-6-PDH.
The mixed system was slowly shaken and incubated in a water bath at 37° C. 100 μL of the incubation solution was taken at 5, 10, 30, and 60 min, respectively, and added into a new 96-well plate with 400 μL of stopping solution in each well. The mixture in each well was mixed well, and the protein was precipitated by centrifuging at 4000×g for 15 minutes at 4° C.
100 μL of the supernatant was taken, and diluted with water at a ratio of 1:2. The samples were analyzed by LC-MS/MS.

In another data set the target is T1, THRβ (Homo sapiens, UniProt P10828).
T1 construct: RXRα and THRβ-LBD Eu-anti-GST antibody with GST tag
Put plainly: THRβ binding assay (time-resolved FRET coactivator peptide recruitment). In kind it is biochemical. The conditions noted are these: THRβ-LBD/RXRα, SRC2-2 coactivator peptide recruitment, 4 hours at room temperature. As for the experimental part: Experimental methods: In vitro analysis of the agonistic effect of compounds on THRβ was performed using time-resolved fluorescence resonance energy transfer coactivator peptide recruitment assays. The assay used biotin-SRC2-2 coactivator peptide, streptavidin-d2, RXRα and THRβ-LBD Eu-anti-GST antibody with GST tag. Eu-anti-GST antibody indirectly labeled THRβ-LBD by binding to the GST tag. Streptavidin-d2 indirectly labeled the SRC2-2 coactivator peptide by binding to the biotin tag. In the presence of RXRα, THRβ-LBD can form heterodimer THRβ-LBD/RXRα with it. […] According to the effect of different concentrations of the compound on the activity of THRβ, the agonistic ability of the compound can be evaluated.
The detailed procedure is as follows: • a. 100× reference compound or compound was prepared with DMSO, and equally diluted by 1:3. • b. 100× gradiently diluted reference compound or compound was diluted with 1× reaction buffer to 4×, which was then added to an assay plate. • c. A mixed solution of 4× THRβ-LBD and 4× RXRα was prepared with 1× reaction buffer, and added to the assay plate. • d. A mixed solution of 2× biotin-SRC2-2, 2× Eu-anti-GST, and 2× streptavidin-d2 was prepared with 1× reaction buffer, and added to the assay plate. • e. The assay plate was centrifuged at 1000 rpm for 1 min, and incubated at room temperature in the dark for 4 hours. • f.

In another data set the target is T2, THRα (Homo sapiens, UniProt P10827).
T2 construct: GST
Put plainly: THRα binding assay (as the THRβ assay, THRβ replaced with THRα). It counts as biochemical. Conditions: for EC50: THRα in place of THRβ; for THRα/β selectivity (fold): ratio of THRα EC50 to THRβ EC50.

The structures appear in SMILES notation. Bounds are passed on as bounds.

T1 sequence (P10828 217-461 limits assumed, other chains not shown): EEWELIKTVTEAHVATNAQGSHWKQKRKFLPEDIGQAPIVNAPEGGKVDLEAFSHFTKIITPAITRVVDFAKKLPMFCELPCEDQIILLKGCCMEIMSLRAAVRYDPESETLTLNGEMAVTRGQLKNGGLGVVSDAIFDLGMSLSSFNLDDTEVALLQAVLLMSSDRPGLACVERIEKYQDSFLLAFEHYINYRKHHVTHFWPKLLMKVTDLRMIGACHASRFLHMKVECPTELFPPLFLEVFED
T1 sequence (P19793 whole entry partner, other chains not shown, the tested form may be a part): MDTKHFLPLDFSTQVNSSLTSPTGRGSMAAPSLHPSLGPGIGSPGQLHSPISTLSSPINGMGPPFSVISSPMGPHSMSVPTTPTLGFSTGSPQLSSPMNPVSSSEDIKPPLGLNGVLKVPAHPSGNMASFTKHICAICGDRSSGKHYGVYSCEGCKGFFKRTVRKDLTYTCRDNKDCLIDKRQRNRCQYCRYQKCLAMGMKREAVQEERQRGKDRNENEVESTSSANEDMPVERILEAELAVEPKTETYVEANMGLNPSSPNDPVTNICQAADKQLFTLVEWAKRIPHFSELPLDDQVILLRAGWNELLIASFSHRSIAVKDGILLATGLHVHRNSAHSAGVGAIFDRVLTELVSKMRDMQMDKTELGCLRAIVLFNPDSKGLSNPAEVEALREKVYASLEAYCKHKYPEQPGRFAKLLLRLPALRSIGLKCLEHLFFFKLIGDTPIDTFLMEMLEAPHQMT
T2 sequence (P10827 1-410 isoform P10827-2, other chains not shown): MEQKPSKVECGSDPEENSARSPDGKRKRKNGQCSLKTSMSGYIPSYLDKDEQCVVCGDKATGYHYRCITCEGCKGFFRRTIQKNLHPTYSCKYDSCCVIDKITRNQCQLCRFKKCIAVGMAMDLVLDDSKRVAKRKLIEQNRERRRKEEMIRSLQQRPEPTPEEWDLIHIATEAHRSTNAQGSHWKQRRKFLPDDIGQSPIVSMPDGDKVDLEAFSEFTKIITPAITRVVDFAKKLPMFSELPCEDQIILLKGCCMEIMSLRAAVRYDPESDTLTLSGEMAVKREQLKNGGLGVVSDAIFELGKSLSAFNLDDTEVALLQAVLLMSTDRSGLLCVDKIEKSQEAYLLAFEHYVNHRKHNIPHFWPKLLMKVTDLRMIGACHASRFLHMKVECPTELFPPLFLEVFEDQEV
T2 sequence (P19793 whole entry partner, other chains not shown): as the sequence (P19793 whole entry partner, other chains not shown, the tested form may be a part) above

Consider `N#Cc1nn(-c2cc(Cl)c(Oc3ccc(=O)n(C4CC4)c3)c(Cl)c2)c(=O)[nH]c1=O` [Example 10, 2-(3,5-Dichloro-4-((1-cyclopropyl-6-oxo-1,6-dihydropyridin-3-yl)oxy)phenyl)-3,5-diox o-2,3,4,5-tetrahydro-1,2,4-triazine-6-carbonitrile], for which the half-life at 1 μM in data set [1] is > 120 min. On THRβ, this molecule gave a 50% effective concentration (EC50) of 107 nM.
Consider `O=c1[nH]c(=O)n(-c2cc(Cl)c(Oc3ccc(=O)n(-c4ccccc4)c3)c(Cl)c2)nc1CF` [Example 35, 2-(3,5-dichloro-4-((6-oxo-1-phenyl-1,6-dihydropyridin-3-yl)oxy)phenyl)-6-(fluoromethyl)-1,2,4-triazine-3,5(2H, 4H)-dione], for which the half-life at 1 μM in data set [1] is > 120 min. The concentration giving a half-maximal response (EC50) was 6 nM on THRβ and 220 nM on THRα. The “THRα/β selectivity (fold)” value on THRα amounted to 36.7 fold.
Regarding `N#Cc1nn(-c2cc(Cl)c(Oc3cc(Cl)c(=O)n(C4CCCC4)c3)c(Cl)c2)c(=O)[nH]c1=O` [Example 15, 2-(3,5-Dichloro-4-[(5-chloro-1-cyclopentyl-6-oxo-1,6-dihydropyridin-3-yl)oxy]phenyl) -3,5-dioxo-2,3,4,5-tetrahydro-1,2,4-triazine-6-carbonitrile], the half-life at 1 μM in data set [1] worked out at 11.5 min. This molecule also had an EC50 on THRβ of 793 nM.
Regarding `N#Cc1nn(-c2cc(Cl)c(Oc3ccc(=O)n(C4CCCC4)c3)c(Cl)c2)c(=O)[nH]c1=O` [Example 12], in data set [1], the half-life at 1 μM came to 4.4 min. Besides, the response on THRβ was half-maximal at 18 nM (EC50).
`N#Cc1nn(-c2cc(Cl)c(Oc3ccc(=O)n(-c4cccc(OC(F)(F)F)c4)c3)c(Cl)c2)c(=O)[nH]c1=O` [Example 24, 2-(3,5-Dichloro-4-((6-oxo-1-(3-(trifluoromethoxy)phenyl)-1,6-dihydropyridin-3-yl)oxy)phenyl)-3,5-dioxo-2,3,4,5-tetrahydro-1,2,4-triazine-6-carbonitrile]: it took 23 nM to reach a half-maximal effect on THRβ (EC50). At THRα, it took 810 nM to reach a half-maximal effect (EC50) and the “THRα/β selectivity (fold)” value was found to be 35.2 fold.
In the same order, the values of `Cc1nn(-c2cc(Cl)c(Oc3ccc(=O)n(-c4ccccc4)c3)c(Cl)c2)c(=O)[nH]c1=O` [Example 36, 2-(3,5-Dichloro-4-((6-oxo-1-phenyl-1,6-dihydropyridin-3-yl)oxy)phenyl)-6-methyl-1,2,4-triazine-3,5(2H, 4H)-dione] are 18 nM, 351 nM and 19.5 fold.
Turning to `O=c1[nH]c(=O)n(-c2cc(Cl)c(Oc3ccc(=O)n(-c4ccc(F)cc4)c3)c(Cl)c2)nc1CF` [Example 37, 2-(3,5-dichloro-4-((1-(4-fluorophenyl)-6-oxo-1,6-dihydropyridin-3-yl)oxy)phenyl)-6-(fluoromethyl)-1,2,4-triazine-3,5(2H, 4H)-dione], the EC50 at THRβ was determined as 92 nM; at THRα it was 9260 nM. The “THRα/β selectivity (fold)” value on THRα came out at 100.6 fold.
For `N#Cc1nn(-c2cc(Cl)c(Oc3ccc(=O)n(C4CCCC4=O)c3)c(Cl)c2)c(=O)[nH]c1=O` (centres unmarked) [Example 4, 2-(3,5-dichloro-4-((6-oxo-1-(2-oxocyclopentyl)-1,6-dihydropyridin-3-yl)oxy)phenyl)-3,5-dioxo-2,3,4,5-tetrahydro-1,2,4-triazine-6-carbonitrile], the half-life at 1 μM in data set [1] is 110 min. The molecule also came in with an EC50 on THRβ of 561 nM.
In the same order, the values of `N#Cc1nn(-c2cc(Cl)c(Oc3ccc(=O)n(C4CCCCC4)c3)c(Cl)c2)c(=O)[nH]c1=O` [Example 9, 2-(3,5-Dichloro-4-((1-cyclohexyl-6-oxo-1,6-dihydropyridin-3-yl)oxy)phenyl)-3,5-dioxo-2,3,4,5-tetrahydro-1,2,4-triazine-6-carbonitrile] are 7 min and 12 nM.
On to `O=c1[nH]c(=O)n(-c2cc(Cl)c(Oc3ccc(=O)n(-c4cccc(OC(F)(F)F)c4)c3)c(Cl)c2)nc1CF` [Example 40, 2-(3,5-Dichloro-4-((6-oxo-1-(3-(trifluoromethoxy)phenyl)-1,6-dihydropyridin-3-yl)oxy)phenyl)-6-(fluoromethyl)-1,2,4-triazine-3,5(2H, 4H)-dione], for which it took 4 nM to reach a half-maximal effect at THRβ (EC50). Moreover, on THRα, the 50% effective concentration (EC50) was determined as 95 nM and the “THRα/β selectivity (fold)” value turned out to be 23.7 fold.
As for `O=c1[nH]c(=O)n(-c2cc(Cl)c(Oc3ccc(=O)n(-c4cccc(C(F)(F)F)c4)c3)c(Cl)c2)nc1CF` [Example 39, 2-(3,5-Dichloro-4-((6-oxo-1-(3-(trifluoromethyl)phenyl)-1,6-dihydropyridin-3-yl)oxy)phenyl)-6-(fluoromethyl)-1,2,4-triazine-3,5(2H, 4H)-dione], the figures for the EC50 at THRβ and on THRα were 5 nM and 117 nM, respectively. At THRα, the “THRα/β selectivity (fold)” value was determined as 23.3 fold.
Turning to `Cc1cc(Oc2c(Cl)cc(-n3nc(C#N)c(=O)[nH]c3=O)cc2Cl)cn(C2CCCC2)c1=O` [Example 17, 2-(3,5-Dichloro-4-[(1-cyclopentyl-5-methyl-6-oxo-1,6-dihydropyridin-3-yl)oxy]phenyl) -3,5-dioxo-2,3,4,5-tetrahydro-1,2,4-triazine-6-carbonitrile], in data set [1], the half-life at 1 μM worked out at 3.2 min. At THRβ, this molecule had a half-maximal effective concentration (EC50) of 450 nM.
For `N#Cc1nn(-c2cc(Cl)c(Oc3ccc(=O)n(CC4CCCC4)c3)c(Cl)c2)c(=O)[nH]c1=O` [Example 5, 2-(3,5-Dichloro-4-((1-(cyclopentylmethyl)-6-oxo-1,6-dihydropyridin-3-yl)oxy)phenyl) -3,5-dioxo-2,3,4,5-tetrahydro-1,2,4-triazine-6-carbonitrile] the same measures were 2.1 min and 20 nM.
In turn, `Cc1cc(C)cc(-n2cc(Oc3c(Cl)cc(-n4nc(CF)c(=O)[nH]c4=O)cc3Cl)ccc2=O)c1` [Example 42, 2-(3,5-Dichloro-4-((1-(3,5-dimethylphenyl)-6-oxo-1,6-dihydropyridin-3-yl)oxy)phenyl) -6-(fluoromethyl)-1,2,4-triazine-3,5(2H, 4H)-dione] returned an EC50 on THRβ of 9 nM. Moreover, at THRα, the EC50 was 696 nM and the “THRα/β selectivity (fold)” value was 72.5 fold.
On to `N#Cc1nn(-c2cc(Cl)c(Oc3cc(F)c(=O)n(C4CCCC4)c3)c(Cl)c2)c(=O)[nH]c1=O` [Example 16, 2-(3,5-Dichloro-4-((1-cyclopentyl-5-fluoro-6-oxo-1,6-dihydropyridin-3-yl)oxy)phenyl) -3,5-dioxo-2,3,4,5-tetrahydro-1,2,4-triazine-6-carbonitrile], for which the half-life at 1 μM in data set [1] stood at 5.1 min. Further, the response on THRβ was half-maximal at 370 nM (EC50).
On to `N#Cc1cccc(-n2cc(Oc3c(Cl)cc(-n4nc(C#N)c(=O)[nH]c4=O)cc3Cl)ccc2=O)c1` [Example 28, 2-(3,5-Dichloro-4-((1-(3-cyanophenyl)-6-oxo-1,6-dihydropyridin-3-yl)oxy)phenyl)-3,5- -dioxo-1,2,3,4-4,5-tetrahydro-1,2,4-triazine-6-carbonitrile], for which, on THRβ, it took 23 nM to reach a half-maximal effect (EC50). For the same molecule, at THRα, the response was half-maximal at 1140 nM (EC50) and the “THRα/β selectivity (fold)” value came to 49.5 fold.
For `N#Cc1nn(-c2cc(Cl)c(Oc3ccc(=O)n(-c4cccc(C(F)(F)F)c4)c3)c(Cl)c2)c(=O)[nH]c1=O` [Example 23, 2-(3,5-dichloro-4-((6-oxo-1-(3-(trifluoromethyl)phenyl)-1,6-dihydropyridin-3-yl)oxy)phenyl)-3,5-dioxo-2,3,4,5-tetrahydro-1,2,4-triazine-6-carbonitrile] the same measures were 26 nM, 2690 nM and 103.3 fold.
The molecule `Cc1ccc(-n2cc(Oc3c(Cl)cc(-n4nc(CF)c(=O)[nH]c4=O)cc3Cl)ccc2=O)cc1` [Example 41, 2-(3,5-dichloro-4-((6-oxo-1-(p-tolyl)-1,6-dihydropyridin-3-yl)oxy)phenyl)-6-(fluoromethyl)-1,2,4-triazine-3,5(2H, 4H)-dione] had a 50% effective concentration (EC50) on THRβ of 117 nM. Besides, on THRα, a half-maximal response (EC50) required 7630 nM and the “THRα/β selectivity (fold)” value was found to be 53.7 fold.

The values above are taken from patent US20240109863A1, “2-PYRIDONE DERIVATIVE, AND PREPARATION METHOD THEREFOR AND PHARMACEUTICAL APPLICATION THEREOF” (KPC PHARMACEUTICALS, INC, priority 2020, published 2024).
